From US20110098278A1 (priority 2009, published 2011)
“And” between values parts separate entries of the source, which are not always exact repeats. Identical values can stand only once. Counter-ions that a name gives are not always drawn. Like-named read-outs stand apart in the source and are kept apart here.

Tests used:
[1] = target: T1, human acetylcholine esterase (Homo sapiens, UniProt P22303); test: Human acetylcholine esterase inhibition (human recombinant, HEK-293 cells; Ellman photometry); format: biochemical
T1 construct: host or cells: HEK-293 cells

ferret = test: Emetic activity (retching and vomiting) in the ferret
Sprague Dawley rat = test: PICA behavior (kaolin consumption) in the Sprague Dawley rat as surrogate for emesis; format: in vivo; details: positive control, 130 mg base/kg po
Method: This is a well established model for this purpose in the rat (Takeda N et al (1993) 45 817-21).
Once determined, a comparison was made of the effects of these doses on kaolin consumption over a 0-96 hour period in 24 h increments.
In detail groups of 10 male Sprague Dawley rats were habituated to kaolin for 3 days, then singly housed in grid-bottomed cages and habituated for a further 2 days prior to dosing. On the day of drug administration, the animals were food-deprived for 1 h prior to dosing. […] Access to a weighed quantity of food and kaolin was then restored. Food and kaolin was weighed 24, 48, 72 and 96 h after dosing.

[2] = human recombinant (HEK-293 cells), AMTCh 50 μM, 30 min./37° C., read-out: IC50 for inhibition of human acetyl choline esterase
[3] = USP SGF pH 1.2, 37 deg. C., 0 hours
[4] = USP SGF pH 1.2, 37 deg. C., 1 hour
[5] = USP SIF pH 6.8, 37 deg. C., 0 hours
[6] = USP SIF pH 6.8, 37 deg. C., 2 hours
[7] = 20 mg/kg p.o., 2 hr. observation, individual ferrets, listed as Galantamine valine ester tartrate
[8] = 20 mg (free base)/kg oral or similar molar dose

T1 sequence (P22303 32-614): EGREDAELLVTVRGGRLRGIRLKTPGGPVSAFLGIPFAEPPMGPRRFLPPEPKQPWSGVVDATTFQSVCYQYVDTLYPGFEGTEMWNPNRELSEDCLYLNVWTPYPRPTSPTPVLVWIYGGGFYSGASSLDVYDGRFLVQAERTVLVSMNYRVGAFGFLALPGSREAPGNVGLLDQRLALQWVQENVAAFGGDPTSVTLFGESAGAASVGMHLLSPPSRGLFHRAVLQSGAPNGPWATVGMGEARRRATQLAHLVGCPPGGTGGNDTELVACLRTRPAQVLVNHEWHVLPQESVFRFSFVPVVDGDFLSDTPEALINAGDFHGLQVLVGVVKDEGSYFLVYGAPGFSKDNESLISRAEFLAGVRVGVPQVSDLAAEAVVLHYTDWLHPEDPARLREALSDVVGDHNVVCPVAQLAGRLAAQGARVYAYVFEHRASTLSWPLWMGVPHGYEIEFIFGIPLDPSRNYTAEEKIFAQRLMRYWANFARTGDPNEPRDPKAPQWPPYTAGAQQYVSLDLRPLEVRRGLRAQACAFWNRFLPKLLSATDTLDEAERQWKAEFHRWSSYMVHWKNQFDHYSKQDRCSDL

Compound	IC50 [1, 2] [µM]	% Prodrug Remaining [3]	% Prodrug Remaining [4] [%]	% Prodrug Remaining [5] [%]	% Prodrug Remaining [6] [%]	further results
COc1ccc2c3c1O[C@H]1C[C@@H](OC(=O)CCCC(=O)Nc4ccc(C(=O)O)cc4)C=C[C@@]31CCN(C)C2 [Galantamine [glutaryl-PABA] ester, galantamine (glutaryl-PABA) ester trifluoroacetate]						IC50 [1]: > 100 µM; inhibitory action toward human acetylcholine esterase (in words) ([1]; in contrast to galantamine): significantly less inhibitory actions
COc1ccc2c3c1O[C@H]1C[C@@H](OC(=O)Nc4cccc(C(=O)O)c4)C=C[C@@]31CCN(C)C2 [Galantamine meta amino benzoic acid carbamate]	26	100%	100	100	100	
COc1ccc2c3c1O[C@H]1C[C@@H](OC(=O)Nc4ccc(C(=O)O)cc4)C=C[C@@]31CCN(C)C2 [Galantamine para amino benzoic acid carbamate]	32	100-%	100	100	100	
COc1ccc2c3c1O[C@H]1C[C@@H](OC(=O)NCc4ccc(C(=O)O)cc4)C=C[C@@]31CCN(C)C2 [Galantamine para-amino methyl benzoic acid carbamate]	46	100%	100	100	100	
COc1ccc2c3c1O[C@H]1C[C@@H](OC(=O)Nc4ccc(C(=O)O)cn4)C=C[C@@]31CCN(C)C2 [Galantamine para-amino nicotinic acid carbamate]	55	100%	100	100	100	
COc1ccc2c3c1O[C@H]1C[C@@H](OC(=O)N[C@@H](Cc4ccccc4)C(=O)O)C=C[C@@]31CCN(C)C2 [Galantamine phenylalanine carbamate, galantamine-(S)-phenylalanine carbamate trifluoroacetate]		94.7%	94.7	95.9	95.6	
COc1ccc2c3c1O[C@H]1C[C@@H](OC(=O)[C@@H](N)C(C)C)C=C[C@@]31CCN(C)C2 [Galantamine-(S)-valine ester, galantamine-(S)-valine ester tartrate]						Total number of individual incidences of: Retching (ferret; 20 mg/kg p.o. (galantamine free base content), 2 hr. observation, individual ferrets, listed as Galantamine valine ester tartrate): 22 and 0 (6×) and 2 (2×) and 3 and 14; Total number of individual incidences of: Retching (ferret; 20 mg/kg p.o., 2 hr. observation, Mean): 3.9; Time (min) to onset of: Retching (ferret; [7]): 35 min and >120 min (6×) and 106 min and 11 min and 9 min and 6 min; Time (min) to onset of: Vomiting (ferret; [7]): 44 min and >120 min (9×) and 9 min; Total number of individual incidences of: Vomiting (ferret; [7]): 1 and 0 (9×) and 3
[Cl-].[Li+] [LiCl]						Cumulative mean ± SD kaolin consumption (Sprague Dawley rat; 24 h): 3.33 ± 1.98 g; Cumulative mean ± SD kaolin consumption (Sprague Dawley rat; 48 h): 3.71 ± 2.22 g; Cumulative mean ± SD kaolin consumption (Sprague Dawley rat; 72 h): 4.42 ± 2.82 g; Cumulative mean ± SD kaolin consumption (Sprague Dawley rat; 96 h): 4.82 ± 3.11 g
galantamine (glutaryl-PABA) ester trifluoroacetate [Galantamine [glutaryl-PABA] ester]						% Prodrug Remaining (FaSSIF (pH 6.5), 37 deg. C., 0 hours): 96%; % Prodrug Remaining (FaSSIF (pH 6.5), 37 deg. C., 2 hour): 86%; % Prodrug Remaining (FeSSIF (pH 6.5), 37 deg. C., 0 hours): 85%; % Prodrug Remaining (FeSSIF (pH 6.5), 37 deg. C., 2 hours): 90%
galantamine-(S)-valine ester tartrate						animals dosed that retched (ferret; [8]): 45%; animals dosed that vomited (ferret; [8]): 18%
